According to ChEMBL document CHEMBL5726143, “Aminoindazole derivatives as sodium channel inhibitors” (2019):

Target: Sodium channel protein type 9 subunit alpha (Homo sapiens, UniProt Q15858)
Assay: In Vitro Electrophysiology: Electrophysiological studies are performed with an IonWorks Quattro (Molecular Devices Corp.) automated patch-clamp electrophysiology platform as described by (Schroeder K et al. Journal of Biomolecular Screening 2003, 8 (1), 50-64). Buffers for the experiments have the following composition (mM): Internal solution; K-gluconate 100, KCl 40, MgCl2 3.2, HEPES 5, EGTA 3, pH 7.3. To this amphotericin B is added to final concentration of 0.1 mg/ml to generate access solution. External solution; Dulbecco's Phosphate buffered saline (D-PBS) NaCl 137.93, KCl 2.67, KH2PO4 1.47, Na2HPO4 8.06, CaCl2 0.90, MgCl2 0.49. Prior to the experiment the cells expressing the voltage-gated ion channel of interest are detached from the tissue culture flasks, centrifuged and resuspended in D-PBS. Compounds are prepared and serially diluted in DMSO and finally diluted 1:100 in D-PBS. Cells are exposed to compounds through the pipetting system integrated into the platform and the voltage-gated ion channel of interest is activated with specific voltage stimulation protocols. The following voltage stimulation protocol is used for testing compounds against the voltage-gated sodium channel Nav1.7; from a holding potential of −100 mV a train of eight 60 ms depolarising steps to −20 mV at a frequency of 14 Hz are employed followed by a further step to −20 mV for 2000 ms. […]

Sodium channel protein type 9 subunit alpha, sequence (Q15858 whole entry): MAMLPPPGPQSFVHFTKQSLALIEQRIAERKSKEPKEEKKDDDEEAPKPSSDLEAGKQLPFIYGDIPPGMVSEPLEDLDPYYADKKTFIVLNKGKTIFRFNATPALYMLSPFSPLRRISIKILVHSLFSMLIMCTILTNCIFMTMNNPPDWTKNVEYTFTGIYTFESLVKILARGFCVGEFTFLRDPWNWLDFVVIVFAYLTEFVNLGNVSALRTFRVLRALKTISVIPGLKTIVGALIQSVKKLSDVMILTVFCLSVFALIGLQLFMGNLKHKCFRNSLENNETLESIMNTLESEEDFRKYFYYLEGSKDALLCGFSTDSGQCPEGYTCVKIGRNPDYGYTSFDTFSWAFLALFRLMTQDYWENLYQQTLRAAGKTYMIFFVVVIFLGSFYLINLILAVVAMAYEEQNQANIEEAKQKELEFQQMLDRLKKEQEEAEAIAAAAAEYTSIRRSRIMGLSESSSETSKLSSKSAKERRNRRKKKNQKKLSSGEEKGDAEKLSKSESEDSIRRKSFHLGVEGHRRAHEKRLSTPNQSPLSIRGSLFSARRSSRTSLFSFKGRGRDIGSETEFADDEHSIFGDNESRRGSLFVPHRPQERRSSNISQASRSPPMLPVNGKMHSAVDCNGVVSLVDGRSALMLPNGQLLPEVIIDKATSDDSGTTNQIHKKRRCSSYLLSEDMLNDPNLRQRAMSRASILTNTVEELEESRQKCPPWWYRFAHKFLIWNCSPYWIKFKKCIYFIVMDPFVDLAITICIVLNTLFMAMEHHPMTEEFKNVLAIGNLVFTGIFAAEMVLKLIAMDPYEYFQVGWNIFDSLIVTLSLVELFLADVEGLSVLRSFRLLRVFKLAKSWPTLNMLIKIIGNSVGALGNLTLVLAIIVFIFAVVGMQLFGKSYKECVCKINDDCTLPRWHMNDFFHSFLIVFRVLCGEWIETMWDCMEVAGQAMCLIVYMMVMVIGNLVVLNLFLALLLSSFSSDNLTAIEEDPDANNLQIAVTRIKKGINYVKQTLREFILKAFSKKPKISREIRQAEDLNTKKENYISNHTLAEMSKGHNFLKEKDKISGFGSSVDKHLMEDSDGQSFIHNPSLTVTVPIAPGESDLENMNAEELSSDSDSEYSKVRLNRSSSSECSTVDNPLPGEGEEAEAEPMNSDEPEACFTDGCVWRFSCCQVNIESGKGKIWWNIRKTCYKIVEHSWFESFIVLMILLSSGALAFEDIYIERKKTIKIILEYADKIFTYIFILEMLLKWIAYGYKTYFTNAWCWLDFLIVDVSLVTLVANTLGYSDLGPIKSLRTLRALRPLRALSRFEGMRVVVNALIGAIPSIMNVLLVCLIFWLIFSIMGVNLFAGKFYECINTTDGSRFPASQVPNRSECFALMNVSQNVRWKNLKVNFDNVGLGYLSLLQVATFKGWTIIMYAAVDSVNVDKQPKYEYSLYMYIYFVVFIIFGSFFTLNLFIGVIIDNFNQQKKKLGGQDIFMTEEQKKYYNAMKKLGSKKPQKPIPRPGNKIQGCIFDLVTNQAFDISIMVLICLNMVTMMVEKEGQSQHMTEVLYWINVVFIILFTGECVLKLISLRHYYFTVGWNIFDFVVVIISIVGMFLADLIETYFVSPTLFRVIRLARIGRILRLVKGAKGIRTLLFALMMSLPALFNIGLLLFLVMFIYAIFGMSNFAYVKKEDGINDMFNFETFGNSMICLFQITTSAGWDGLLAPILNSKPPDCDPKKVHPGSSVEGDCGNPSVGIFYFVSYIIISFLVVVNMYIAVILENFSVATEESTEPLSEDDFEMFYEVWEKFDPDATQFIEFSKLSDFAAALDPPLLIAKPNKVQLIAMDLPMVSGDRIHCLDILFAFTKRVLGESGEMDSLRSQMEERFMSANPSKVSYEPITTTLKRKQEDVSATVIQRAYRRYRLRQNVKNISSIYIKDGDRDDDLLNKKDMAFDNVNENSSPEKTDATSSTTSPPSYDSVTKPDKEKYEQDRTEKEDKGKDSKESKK

IC50 | Compound
1230 nM | COc1ccc(OCC(F)(F)C(F)(F)F)c(-c2ccc3c(N)nn(C)c3c2)c1
1070 nM | COc1cccc(-c2ccc3c(N)nn(C)c3c2)c1OCC(F)F
